Laboratory results as given in patent US5858684A, “Method of screening calcium receptor-active molecules” (priority 1995, dated 1999).
“Also recorded” adds a separate entry of the source.

Key:
[1] = target: T1, bovine parathyroid cell calcium receptor (BoPCaR 1) (Bos taurus, UniProt P35384); experiment: Cl- current in Xenopus oocytes expressing BoPCaR 1; format: cell-based; conditions: for Cl- current response in the absence of extracellular Ca2+: no extracellular Ca2+
T1 construct: Xenopus oocytes were injected with BoPCaR 1, the 5.3 Kb cDNA encoding a bovine parathyroid cell calcium receptor; expressed in transfected cells; host or cells: Xenopus laevis oocytes injected with cRNA/cDNA of BoPCaR 1
T1 sequence (P35384 20-1085): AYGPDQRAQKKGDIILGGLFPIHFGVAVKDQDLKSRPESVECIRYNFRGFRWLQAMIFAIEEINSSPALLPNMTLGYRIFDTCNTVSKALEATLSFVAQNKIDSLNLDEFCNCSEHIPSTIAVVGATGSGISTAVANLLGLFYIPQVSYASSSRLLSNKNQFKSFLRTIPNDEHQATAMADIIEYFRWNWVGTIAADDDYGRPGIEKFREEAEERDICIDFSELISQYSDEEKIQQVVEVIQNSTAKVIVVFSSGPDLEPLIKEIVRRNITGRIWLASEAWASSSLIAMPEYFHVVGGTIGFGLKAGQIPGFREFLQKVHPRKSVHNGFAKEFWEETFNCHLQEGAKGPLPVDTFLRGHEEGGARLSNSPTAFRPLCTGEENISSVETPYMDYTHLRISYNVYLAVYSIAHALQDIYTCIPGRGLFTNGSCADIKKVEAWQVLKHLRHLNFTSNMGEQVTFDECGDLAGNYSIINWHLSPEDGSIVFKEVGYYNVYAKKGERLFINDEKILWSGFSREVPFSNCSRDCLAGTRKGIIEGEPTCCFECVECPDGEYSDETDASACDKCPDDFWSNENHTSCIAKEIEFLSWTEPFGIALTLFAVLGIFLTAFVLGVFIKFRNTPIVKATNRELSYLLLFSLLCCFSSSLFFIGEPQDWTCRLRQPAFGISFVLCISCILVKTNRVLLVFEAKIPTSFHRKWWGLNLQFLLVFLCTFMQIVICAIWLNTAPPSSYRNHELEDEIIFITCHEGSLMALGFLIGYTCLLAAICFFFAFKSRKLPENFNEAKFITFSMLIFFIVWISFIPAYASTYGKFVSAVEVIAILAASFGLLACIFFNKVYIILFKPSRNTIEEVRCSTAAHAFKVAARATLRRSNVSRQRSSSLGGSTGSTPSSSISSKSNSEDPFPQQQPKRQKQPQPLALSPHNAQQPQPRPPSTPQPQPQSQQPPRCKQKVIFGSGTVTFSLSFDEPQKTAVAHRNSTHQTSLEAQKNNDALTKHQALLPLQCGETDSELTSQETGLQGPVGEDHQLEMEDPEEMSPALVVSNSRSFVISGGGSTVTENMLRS
Experimental: Following incubation, an oocyte was placed into a 100-μl plastic chamber and superfused with MBS at a flow rate of 0.5 ml/min using a peristaltic pump. Test molecules or inorganic polycations were added by rapidly moving the tubing into different buffers. Recording and current-passing electrodes were constructed from thin-wall capillary tubing pulled to a resistance of 1-3 Mohms and filled with 3M KCl. […] Currents were recorded directly onto a strip chart recorder.
The techniques used to clone the parathyroid calcium receptor are briefly described in this example; a more complete description of the techniques is provided in preceding sections, which describe techniques which may be used to clone additional forms of the Ca^2+ -receptor from other cell types. Poly(A^+)-enriched mRNA was initially prepared from bovine parathyroid glands by extracting with guanidinium thiocyanate, centrifugation through CsCl and oligo(dT) cellulose chromatography. […] No such currents were elicited in control eggs injected with water.
These responses are mediated by the following series of biochemical events:
Xenopus oocytes were injected with BoPCaR 1, the 5.3 Kb cDNA encoding a bovine parathyroid cell calcium receptor as described in Example 25. After two to three days, Cl^- currents were examined in the oocytes using a two-electrode voltage clamp.
Xenopus oocytes were injected with BoPCaR 1 as described in Example 25. After two to three days, Cl^- currents were examined in the oocytes using two electrode voltage clamp.

[2] = serum/blood ionized Ca2+ in rats; format: in vivo, rat
Experimental: Compounds shown to activate the bovine parathyroid cell calcium receptor in vitro were tested for hypocalcemic activity in vivo. Male Sprague-Dawley rats (200 g) were maintained on a low calcium diet for one week prior to receiving test substance or vehicle as control. Blood was collected from the tail vein three hours after the intraperitoneal administration of NPS 467. […] Serum total calcium, albumin and phosphate were measured by techniques well known in the art.
Rats (male, Sprague-Dawley, 250-300 g) were fed standard rat chow and fasted overnight prior to the experiment. NPS R-467 was suspended in corn oil and administered as a single oral dose through a gavage needle. Three hours later a sample of blood was taken from the tail vein and assessed for ionized Ca^2+ levels.

[3] = hypocalcemic response in parathyroidectomized rats; format: in vivo, rat; conditions: NPS R-467 10 mg/kg i.p., 6 hours; NPS R-568 oral
Text: To determine the primary target tissue upon which NPS R-467 acts to cause a hypocalcemic response, the parathyroid glands in rats were surgically removed. Animals receiving a total parathyroidectomy become hypocalcemic and are largely dependent upon dietary calcium to maintain serum Ca^2+ homeostasis.

[4] = 10 mg/kg i.p., single dose, normal diet

SMILES | potentiation of response to submaximal extracellular Ca2+ [1] | decrease in serum ionized Ca2+ from the control level [2, 4] | time to maximal fall in serum ionized Ca2+ [2, 4] | serum ionized Ca2+, oral ([2]; single oral dose in corn oil, 3 hours) | serum ionized Ca2+ in parathyroidectomized rats [3] | Cl- current ([1]; 1 mM extracellular Ca2+) | Cl- current response in the absence of extracellular Ca2+ [1] | plasma Ca2+ ([2]; p.o., rats) | concentrations eliciting increases in Cl- current [1] | large inward currents: effective concentration ([1]; cRNA-injected oocytes)
COc1cccc([C@@H](C)NCCCc2ccccc2)c1 (single isomer, unassigned) [NPS R-467] | potentiate the response | 22% | ≤ 1 h | lowers serum ionized calcium; also recorded: dose-dependent reduction in serum levels of ionized | did not cause any change in serum ionized |  |  |  |  | 
NCCCNCCCCNCCCNCCCNCCCNC(=O)Cc1c[nH]c2ccccc12 [NPS 019] |  |  |  |  |  | oscillatory increases | persisted |  |  | 
COc1cccc([C@@H](C)NCCCc2ccccc2Cl)c1 [NPS R-568, (R)-(+)-N-[3-(2-chlorophenyl)propyl]-amethyl-α-3-methoxybenzylamine] | potentiate the response; also recorded: potentiated the responses to submaximal concentrations |  |  |  | fails to elicit a hypocalcemic response |  | abolished | rapid, dose-dependent decrease |  | 
NC[C@@H]1O[C@H](O[C@H]2[C@@H](O)[C@H](O[C@@H]3[C@@H](O)[C@H](N)C[C@H](N)[C@H]3O[C@H]3O[C@H](CN)[C@@H](O)[C@H](O)[C@H]3N)O[C@@H]2CO)[C@H](N)[C@@H](O)[C@@H]1O [Neomycin] |  |  |  |  |  |  | persists |  | 20 to 100 µM | 200 µM
